Measurements from article PMC7279002, “Novel 3′-Substituted-1′,2′,4′-Oxadiazole Derivatives of 18βH-Glycyrrhetinic Acid and Their O-Acylated Amidoximes: Synthesis and Evaluation of Antitumor and Anti-Inflammatory Potential In Vitro and In Vivo” (International Journal of Molecular Sciences, 2020).
Where two headings read alike, the source gives them in different places.

Key:
[1] = tested on: HeLa, KB-3-1, HuTu-80, A549, B16 and hFF3 cells; assay: MTT cytotoxicity, summary over the panel of cell lines; type: cell-based
Protocol: (§1) On the first step of the biological evaluation of novel GA derivatives 3a-h, 4a-h, and 5a-h, we analyzed their cytotoxicity in a panel of cultured mammalian cells, including human cervical carcinoma HeLa and KB-3-1, human duodenal carcinoma HuTu-80, human lung adenocarcinoma A549, murine melanoma B16 cell lines, and nontransformed human fibroblasts hFF3. The cells were treated with derivatives for 48 h and cell viability was evaluated by 3-(4, 5-dimethylthiazol-2-yl)-2, 5-diphenyltetrazolium bromide (MTT) assay. Since the studied compounds contain two types of functional groups at position 3-acetoxy- or the hydroxyl-group, 3-acetoxy-GA 1 and GA-Me were used as references. Additionally, hierarchical clustering of cytotoxic data was carried out in order to reveal groups of compounds with similar cytotoxic profiles (Figure 2A).
(§2) Cells were seeded in tetra- or pentaplicates in 96-well plates at a density of 10^4 (tumor cells and […] fibroblasts) or 10^5 (RAW264.7 cells) cells per well. Cells were incubated under standard conditions for 24 h, followed by their treatment with the investigated derivatives (0.5–50 µM) or corresponding concentrations of DMSO (control) for a further 48 h (tumor cells and fibroblasts) or 24 h (RAW264.7 cells). At the end of incubation period, 10 µL of MTT solution was added to the cells (final concentration: 0.5 mg/mL) and plates were incubated for an additional 2 h under standard conditions. Then, the MTT-containing medium was aspirated and formazan crystals formed in living cells were solubilized with 100 µL of DMSO. The absorbance of each well was read at test and reference wavelengths of 570 and 620 nm, respectively, on a Multiscan RC plate reader (Thermo LabSystems, Helsinki, Finland). The IC50 values (the concentration of compounds leading to a decrease of A570 to 50% of A570^control) were calculated by extrapolation of the dose–response curves. […] A heatmap of SI values was constructed by Microsoft Excel 2010.

[2] = tested on: human lung adenocarcinoma A549; assay: MTT cytotoxicity assay, 48 h; type: cell-based; details: Homo sapiens, A549; MTT, 48 h
Protocol: as §1
(§3) Human cervical carcinoma HeLa and KB-3-1 cells, human duodenal carcinoma HuTu-80 cells, and human lung adenocarcinoma A549 cells were obtained from the Russian Culture Collection (Institute of Cytology, RAS, St. Petersburg, Russia). Melanoma B16-F10 (hereafter, melanoma B16) cells were obtained from the Cell Culture Bank of the Blokhin National Medical Oncology Research Center (Moscow, Russia). Nonmalignant fibroblasts hFF3 and RAW264.7 macrophages were kindly provided by Dr. Olga A. Koval (Institute of Chemical Biology and Fundamental Medicine, SB RAS, Novosibirsk, Russia) and Prof. Dmitry Kuprash (Engelhardt Institute of Molecular Biology, RAS, Moscow, Russia), respectively. The cells were cultured in DMEM (Sigma-Aldrich Inc., St. Louis, MO, USA) supplemented with 10% (v/v) heat-inactivated fetal bovine serum (FBS) (BioloT, St. Petersburg, Russia) and antibiotic–antimycotic solution (100 U/mL penicillin, 100 µg/mL streptomycin, 0.25 µg/mL amphotericin). […] The cells were incubated at 37 °C in a humidified 5% CO2-containing air atmosphere (hereafter referred to as standard conditions). GA derivatives were dissolved in DMSO (stock solutions: 10 mM) and stored at −20 °C prior to use.
as §2

[3] = tested on: human duodenal carcinoma HuTu-80; assay: MTT cytotoxicity assay, 48 h; type: cell-based; details: Homo sapiens, HuTu80; MTT, 48 h; read-out: IC50, µM Duodenum HuTu-80
Protocol: as §1, §3, §2

[4] = tested on: nontransformed human fibroblasts hFF3; assay: MTT cytotoxicity assay, 48 h; type: cell-based; details: Homo sapiens, HFF-3, read-out: IC50, µM Fibroblast hFF3
Protocol: as §1, §3, §2

[5] = tested on: human cervical carcinoma KB-3-1; assay: MTT cytotoxicity assay, 48 h; type: cell-based; details: Homo sapiens, KB 3-1; MTT, 48 h; read-out: IC50, µM Cervix KB-3-1
Protocol: as §1, §3, §2

[6] = tested on: human cervical carcinoma HeLa; assay: MTT cytotoxicity assay, 48 h; type: cell-based; details: Homo sapiens, HeLa; MTT, 48 h; read-out: IC50, µM Cervix HeLa
Protocol: as §1, §3, §2

[7] = tested on: murine melanoma B16; assay: MTT cytotoxicity assay, 48 h; type: cell-based; details: Mus musculus; MTT, 48 h
Protocol: as §1, §3, §2

[8] = tested on: carrageenan-induced paw edema; assay: Carrageenan-induced paw edema; type: in vivo, ICR mice
Protocol: To induce paw edema, ICR mice were injected with 1% carrageenan (50 μL) on the plantar side of the right hind paw. […] Mice were sacrificed 5 h after induction of paw edema. The percent of edema weight in carrageenan-injected compound-treated groups in comparison to that in vehicle-treated control group was calculated according to the formula: % Edema=(M1−M2/M2)^compound/∑n(M1−M2/M2)^vehicle×n×100%, where M1 is the weight of the paw with carrageenan-induced edema; M2 is the weight of the intact paws; compound and vehicle correspond to the compound- and vehicle-treated phlogogen-injected mice, respectively; and n is the number of mice in the control group (n = 9). Furthermore, paw material was collected for subsequent histological analysis.
For histological analysis, the specimens of intact and edema paws from each animal were dehydrated in ascending ethanol and xylol and embedded in HistoMix paraffin (BioVitrum, Russia). Paraffin sections (5 μm) were sliced on a Microm HM 355S microtome (Thermo Fisher Scientific, Waltham, MA, USA) and stained with hematoxylin and eosin. Images were obtained using an Axiostar Plus microscope equipped with an Axiocam MRc5 digital camera (Zeiss, Oberkochen, Germany) at ×100 and ×400 magnifications.

[9] = tested on: NO synthesis by IFN-γ-induced RAW264.7 cells; assay: NO production by IFNγ-stimulated macrophages (Griess); type: cell-based, murine; details: 10–50 µM, 24 h, IFNγ (20 ng/mL)
Protocol: (§4) RAW264.7 cells were seeded in tetraplicates in 96-well plates at a density of 10^5 cells/well and incubated under standard conditions for 24 h. The cells were treated with murine IFNγ (20 ng/mL) (Gibco, Grand Island, NY, USA) with or without (control) 3d (10–50 µM) for a further 24 h. At the end of the incubation period, the levels of TNF-α and NO in culture medium were measured using murine TNF alpha ELISA (Thermo Scientific, Frederick, MD, USA) and the Griess reagent system (Promega, Madison, WI, USA), respectively, according to manufacturers’ instructions.

[10] = tested on: murine RAW264.7 macrophages; assay: MTT cytotoxicity assay, 24 h; type: cell-based; details: up to 50 µM
Protocol: as §2

[11] = tested on: carrageenan-induced peritonitis; assay: Carrageenan-induced peritonitis; type: in vivo, ICR mice; details: i.p. 1 h before carrageenan, 4 h
Protocol: To study the effect of 3d on carrageenan-induced peritonitis, ICR mice were injected with 1% carrageenan (250 μL) intraperitoneally (i.p.). Compound 3d (50 mg/kg), vehicle (10% Tween-80), dexamethasone (1 mg/kg) as a reference anti-inflammatory drug, and saline buffer were administered i.p. 1 h before peritonitis induction. The healthy uninflamed group (control) was injected i.p. by saline. Mice were sacrificed 4 h after carrageenan injection and their peritoneal cavities were washed with 2 mL of heparinized cold saline buffer to obtain peritoneal cells. The peritoneal exudates were collected and the total leukocyte counts were performed with a Neubauer chamber by optical microscopy after diluting the peritoneal fluid with Turk solution (1:20). To determine the differential leukocyte counts (total 100 cells), peritoneal cells were centrifuged and placed onto slides, stained with azur–eosin by Romanovsky–Giemsa and examined by optical microscopy. The results were expressed as the number of total leukocytes (×10^5 cells/mL) and the percentages of subpopulations of neutrophils, lymphocytes, and monocytes.

[12] = tested on: TNFα production by IFN-γ-stimulated RAW264.7 cells; assay: TNF-α production by IFNγ-stimulated macrophages (ELISA); type: cell-based, murine; details: 10–50 µM, 24 h, IFNγ (20 ng/mL)
Protocol: as §4

## CC(=O)O[C@H]1CC[C@@]2(C)C(CC[C@]3(C)C2C(=O)C=C2[C@@H]4C[C@@](C)(C(=O)O/N=C(/N)C(C)(C)C)CC[C@]4(C)CC[C@]23C)C1(C)C (some centres unmarked) [Compound 3d]
[1]; all tested cell lines
  cytotoxicity in all tested cell lines: nontoxic
[1]; median over all tested cell lines, read-out: median IC50
  IC50: > 50 µM
[1]; read-out: IC50 values with respect to all tested cell lines
  IC50: > 50 µM
[2]
  IC50: > 50 µM
[3]
  IC50: > 50 µM
[4]
  IC50: > 50 µM
[5]
  IC50: > 50 µM
[6]
  IC50: > 50 µM
[7]
  IC50: > 50 µM
[8]; 50 mg/kg, gastric gavage
  histology of footpads: substantially reducing leukocyte infiltration in the dermis of the footpads
[8]; gastric gavage 1 h before carrageenan, 5 h after induction, 3d 50 mg/kg, indomethacin 20 mg/kg
  decrease of the weight of edema compared with vehicle-treated mice: 1.7 fold
other
  melting point: 151.6 to 152.3 °C
[9]
  inhibition of NO synthesis compared with the control: up to 5.3 times
[10]
  cytotoxicity to RAW264.7 macrophages: did not reveal cytotoxicity
[11]
  distribution of leukocyte subpopulations in peritoneal fluid: restore leukocyte subtype content to a healthy level
[11]; 3d 50 mg/kg, dexamethasone 1 mg/kg
  decrease of the total leukocyte number in peritoneal exudates: 2.7 fold
[12]
  suppression of TNFα production compared to the IFN-γ-stimulated control: 2.2–9.0 times
